Consider three compounds from US4876284A, “1-alkyl-2-aminotetralin derivatives” (Per Arvid Emil Carlsson, priority 1981, dated 1989).

For experiment [1] the following is noted: in vivo; cited from earlier work.
Experiment [2] relates to postsynaptic DA receptors. The experiment is described as follows: Antagonism of the reserpine plus α-methyl-para-tyrosine-induced immobility (neuroleptic syndrome) in rats; motor activity. The settings on record: for Motor activity: reserpine 10 mg/kg + α-methyl-para-tyrosine 250 mg/kg i.p., means ± s.e.m.; for motor response / postsynaptic DA-receptor stimulatory effects: comparative study, Table II, s.c.

A further experiment deals with DA autoreceptors. The experiment is described as follows: Spontaneous locomotor activity in non-pretreated rats. As to conditions: non-pretreated rats; for effect on locomotor activity, in words: s.c. The class given is in vivo, rat. How it is done:
Untreated animals exposed to a new environment display an initial high motor activity which then gradually declines over a period of time. Administration of DA-receptor agonists (e.g. apomorphine) in doses where preferential autoreceptor stimulation is likely to occur, causes a depression of the spontaneous motility mentioned above, considered to be due to the DA autoreceptor-medicated attenuation of central DA transmission.
Rats (150-300 g) were injected subcutaneously with compound 2,5-OH-DPAT or apomorphine and after 5 minutes they were individually placed in motility boxes ("M/P 40 Fc Electronic Motility Meter". Motron Products, Stockholm) and the motor activity (0-30 min) was quantified. […] These findings are in congruence with the results obtained with the selective DA-autoreceptor agonist 3-PPP [S. Hjorth t al., Life Sciences, 28, 1225 (1981)] but in sharp contrast to the results obtained with 5-OH-DPAT and apomorphine (Table III).
Non-pretreated rats were given compound -2 (0.0625-16.0 mg/kg),
5OH--2-(di-n-propylamino) tetralin (5OH--DPAT; 0.0125-0.05 mg/kg,
apomorphine (0.1-1.0 mg/kg) or saline subcutaneously. Five minutes later
they were placed individually into motility meters and the locomotor

Experiment [3] relates to central DA-receptor (pre- and/or postsynaptic). The settings on record: reserpine-pretreated rats, s.c., cited from earlier work; for Dopa-accumulation; ED50, Limbic (taken from Hacksell et al., J. Med. Chem. 22, 1469 (1979)): limbic forebrain.
The test system of another experiment is autoreceptor. The settings on record: low doses; cited from earlier work.
[4] abbreviates: reserpine and α-methyl-para-tyrosine pretreated rats.

On to `CN(C)C1CCc2ccc(O)cc2C1(C)C` (stereo not shown) [1,1-Dimethyl-2-(N,N-dimethylamino)-7-hydroxytetralin], for which the “actions stated in CA 79: 146294b” value in experiment [1] is “analgesic and intestinal movement accelerating actions”.

Turning to `CCCN(CCC)C1CCc2c(O)cccc2C1` (stereo not shown) [Compound 5-OHDPAT, 5-hydroxy-2-(di-n-propylamino)tetralin], the Motor activity in experiment [2] (0.75 mg/kg s.c.) was found to be 620 ± 20 counts 0-60 min. For the same compound, the “motor response / postsynaptic DA-receptor stimulatory effects” value in experiment [2] is “strong central postsynaptic DA-receptor stimulatory effects”. Moreover, in experiment [2] (setting [4]), the “antagonism of the reserpine-induced syndrome / behaviour elicited” value is “pronounced stereotyped and hyperactive behaviour”; the “postsynaptic DA-receptor stimulation” value is reported as “efficient postsynaptic DA-receptor stimulants”. Also, the Locomotor activity with DA autoreceptors (0.0125 mg/kg s.c.) amounted to 84 ± 11 counts 0.30 min. Besides, in the experiment on DA autoreceptors (0.05 mg/kg s.c.), the Locomotor activity was found to be 380 ± 24 counts 0.30 min. Moreover, the “effect on locomotor activity, in words” value with DA autoreceptors was “lower doses significantly suppressing and higher dosess significantly stimulating the rat locomotor activity”. In addition, in experiment [3], the “Dopa-accumulation; ED50, Limbic (taken from Hacksell et al., J. Med. Chem. 22, 1469 (1979))” value is 0.111 μmol/kg s.c and the “Dopa-accumulation; ED50, Striatum (taken from Hacksell et al., J. Med. Chem. 22, 1469 (1979))” value was 0.009 μmol/kg s.c.

For the compound `CN1CCc2cccc3c2[C@H]1Cc1ccc(O)c(O)c1-3` [Apomorphine], in experiment [2] (1 mg/kg s.c.), the Motor activity is given as 517 ± 56 counts 0-60 min. Moreover, in experiment [2], the “motor response / postsynaptic DA-receptor stimulatory effects” value was “strong central postsynaptic DA-receptor stimulatory effects”. In addition, the “antagonism of the reserpine-induced syndrome / behaviour elicited” value in experiment [2] (setting [4]) was “pronounced stereotyped and hyperactive behaviour”. Also, in the experiment with autoreceptor, the “effects demonstrated in man” value was “"paradoxical" antipsychotic and antidyskinetic effects”. In the experiment with DA autoreceptors (0.1 mg/kg s.c.), the Locomotor activity came out at 134 ± 9 counts 0.30 min. Further, the Locomotor activity in the experiment with DA autoreceptors (1.0 mg/kg s.c.) is on record as 439 ± 67 counts 0.30 min. Moreover, in the experiment on DA autoreceptors, the “effect on locomotor activity, in words” value was “lower doses significantly suppressing and higher dosess significantly stimulating the rat locomotor activity”. Moreover, in experiment [3], the “Dopa-accumulation; ED50, Limbic (taken from Hacksell et al., J. Med. Chem. 22, 1469 (1979))” value was 0.19 μmol/kg s.c and the “Dopa-accumulation; ED50, Striatum (taken from Hacksell et al., J. Med. Chem. 22, 1469 (1979))” value is listed as 0.22 μmol/kg s.c.
